Test results: patent US5281626A, “Benzenesulfonamide derivatives” (Eisai Co., Ltd., priority 1990, dated 1994)

Legend:
[1] = test system: phospholipase A2 (PLA2) contained in the membrane fraction of rabbit heart; assay: Inhibitory activity against phospholipase A2 (PLA2) contained in the membrane fraction of rabbit heart; format: biochemical; conditions: CaCl2 added, 37° C., 30 minutes
Method: (§1) A. Inhibitory activity against phospholipase A2 (PLA2) contained in the membrane fraction of rabbit heart or the supernatant fraction thereof (method) An NZW male rabbit was anesthetized by the intravenous administration of pentobarbital sodium to take out its heart. This heart was washed with ice cooled physiological saline to recover a ventricle, followed by the addition of ice-cooled 0.25M sucrose/20 mM tris hydrochloride buffer (pH: 8.0) in an amount of 5 ml per g of the ventricle. The obtained mixture was mashed with a homogenizer in ice water for 30 minutes and centrifuged at 1,000 g for 10 min. The supernatant was further centrifuged at 105,000 g for 60 min. The centrifugation was conducted at 0° to 4° C. The obtained supernatant was used as such as the supernatant fraction for examination. The precipitate was suspended in the same buffer as that described above and used as the membrane fraction for examination. The protein concentrations of these fractions were each adjusted to 5 mg/ml as determined by Lowry method. […] The test tubes of the membrane fraction were kept at 37° C. for 30 minutes for incubation, while those of the supernatant fraction were kept at 37° C. for 5 minutes for incubation. Each incubation was stopped by the addition of 1 ml of Dole reagent. […] The amount of ^14 C was determined with a liquid scintillation counter. Mepacrine was selected as a comparative compound. (Results)

[2] = test system: phospholipase A2 (PLA2) contained in the supernatant fraction of rabbit heart; assay: Inhibitory activity against phospholipase A2 (PLA2) contained in the supernatant fraction of rabbit heart; format: biochemical; conditions: EGTA added, 37° C., 5 minutes
Method: as §1

Q: Which results are given for CN(C(=O)/C=C/c1ccc(C#N)cc1)c1ccc(S(=O)(=O)NC2CCN(Cc3ccccc3)CC2)cc1 [Example 26, N-(1-benzyl-4-piperidyl)-4-{N-methyl-N-[(E)-3-(4-cyanophenyl)-2-propenoyl]amino}benzenesulfonamide]?
A: PLA2 -inhibitory activity IC30, membrane fraction [1]: 0.24 µM; PLA2 -inhibitory activity IC30, supernatant fraction [2]: 59 µM

Q: CN(C(=O)/C=C/c1ccc(O)c(F)c1)c1ccc(S(=O)(=O)NC2CCCCCCC2)cc1 [Example 87, N-cyclooctyl-4-{N-methyl-N-[(E)-3-(3-fluoro-4-hydroxyphenyl)-2-propenoyl]amino}benzenesulfonamide] was tested. Which “PLA2 -inhibitory activity IC30, membrane fraction” value [1] did it give?
A: 2.1 µM

Q: For CN(C(=O)/C=C/c1ccc(-n2ccnc2)cc1)c1ccc(S(=O)(=O)N[C@@H]2C[C@H]3CC[C@@H]2C3)cc1 (relative stereo) [Example 31, (±)-N-(exo-2-norbornyl)-4-{N-methyl-N-[(E)-3-[4-(1-imidazolyl)phenyl]-2-propenoyl]amino}benzenesulfonamide], which “PLA2 -inhibitory activity IC30, membrane fraction” value [1] is on record?
A: 0.42 µM

Q: And the “PLA2 -inhibitory activity IC30, supernatant fraction” value [2]?
A: 29 µM

Q: CN(C(=O)/C=C/c1ccc(S(C)(=O)=O)cc1)c1ccc(S(=O)(=O)NC2CCCCCC2)cc1 [Example 14, N-pycloheptyl-4-(N-methyl-N-[(E)-3-(4-methylsulfonylphenyl)-2-propenoyl]amino}benzenesulfonamide] was tested. Which “PLA2 -inhibitory activity IC30, membrane fraction” value [1] did it give?
A: 0.016 µM

Q: And the “PLA2 -inhibitory activity IC30, supernatant fraction” value [2]?
A: > 30 µM

Q: Which “PLA2 -inhibitory activity IC30, membrane fraction” value [1] does the source give for CN(C(=O)/C=C/c1ccc(OC(=O)CN)c(OC(=O)CN)c1)c1ccc(S(=O)(=O)NC2Cc3ccccc3C2)cc1 [Example 3, N-(2-indanyl)-4-{N-methyl-N-[(E)-3-[3,4-diglycyloxyphenyl)-2-propenoyl]amino}benzenesulfonamide] here?
A: 2.4 µM

Q: What does the source list for CN(C(=O)/C=C/c1ccc(S(C)(=O)=O)cc1)c1ccc(S(=O)(=O)N2CCCN(Cc3ccccc3)CC2)cc1 [Example 21, (E)-N-methyl-N-[4-(4-benzyl-1-homopiperazinyl)sulfonylphenyl]-3-(4-methylsulfonylphenyl)-2-propenamide]?
A: PLA2 -inhibitory activity IC30, membrane fraction [1]: 0.055 µM; PLA2 -inhibitory activity IC30, supernatant fraction [2]: > 100 µM

Q: CN(C(=O)/C=C/c1ccc(-n2ccnc2)cc1)c1ccc(S(=O)(=O)NC2CCCCCCC2)cc1 [Example 30, N-cyclooctyl-4-{N-methyl-N-[(E)-3-[4-(1-imidazolyl)phenyl]-2-propenoyl]amino}benzenesulfonamide] was tested. Which “PLA2 -inhibitory activity IC30, membrane fraction” value [1] did it give?
A: 0.66 µM

Q: And the “PLA2 -inhibitory activity IC30, supernatant fraction” value [2]?
A: > 100 µM

Q: Which results are given for CN(C(=O)/C=C/c1ccc(S(C)(=O)=O)cc1)c1ccc(S(=O)(=O)NC2CCN(CCc3ccccc3)CC2)cc1 [Example 5, N-[1-(2-phenylethyl)-4-piperidyl]-4-{N-methyl-N-[(E)-3-(4-methylsulfonylphenyl) -2-propenoyl]amino}benzenesulfonamide]?
A: PLA2 -inhibitory activity IC30, membrane fraction [1]: 0.007 µM; PLA2 -inhibitory activity IC30, supernatant fraction [2]: 49 µM

Q: What does the source list for CN(C(=O)/C=C/c1ccc(S(C)(=O)=O)cc1)c1ccc(S(=O)(=O)NCCc2ccccn2)cc1 [Example 18, N-[2-(2-pyridyl)ethyl]-4-{N-methyl-N-[(E)-3-(4-methylsulfonylphenyl) -2-propenoyl]amino}benzenesulfonamide]?
A: PLA2 -inhibitory activity IC30, membrane fraction [1]: 0.18 µM; PLA2 -inhibitory activity IC30, supernatant fraction [2]: > 100 µM

Q: What does the source list for CN(C(=O)/C=C/C=C/c1ccc(O)c(O)c1)c1ccc(S(=O)(=O)NC2CCCCCC2)cc1 [Example 50, N-cycloheptyl-4-{N-methyl N-[(2E, 4E)-5-(3,4-dihydroxyphenyl)-2,4-pentadienoyl]amino}benzenesulfonamide]?
A: PLA2 -inhibitory activity IC30, membrane fraction [1]: 1.05 µM; PLA2 -inhibitory activity IC30, supernatant fraction [2]: 38 µM

Q: What does the source list for NS(=O)(=O)c1ccc(NC(=O)/C=C/c2ccc(O)c(O)c2)cc1 [Example 77]?
A: PLA2 -inhibitory activity IC30, membrane fraction [1]: 20 µM; PLA2 -inhibitory activity IC30, supernatant fraction [2]: > 100 µM

Q: For CN(C(=O)/C=C/c1ccc(S(C)(=O)=O)cc1)c1ccc(S(=O)(=O)N2CCN(CCc3ccccc3)CC2)cc1 [Example 22, (E)-N methyl-N-{4-[4-(2-phenylethyl)-piperazinyl]sulfonylphenyl}-3-(4-methylsulfonylphenyl)-2-propenamide], which “PLA2 -inhibitory activity IC30, membrane fraction” value [1] is on record?
A: 0.050 µM

Q: What about the “PLA2 -inhibitory activity IC30, supernatant fraction” value [2] of the same compound?
A: > 100 µM

Q: For COc1ccc(CCN2CCC(NS(=O)(=O)c3ccc(N(C)C(=O)/C=C/c4ccc(S(C)(=O)=O)cc4)cc3)CC2)cc1OC [Example 79], which “PLA2 -inhibitory activity IC30, membrane fraction” value [1] is on record?
A: 0.03 µM

Q: And the “PLA2 -inhibitory activity IC30, supernatant fraction” value [2]?
A: > 100 µM

Q: Which results are given for CN(C(=O)/C=C/c1ccc(S(C)(=O)=O)cc1)c1ccc(S(=O)(=O)N2CCCN(CC3CCCCC3)CC2)cc1 [Example 20, (E)-N-methyl-N-[4-(4-cyclohexylmethyl-1-homopiperazinyl)sulfonylphenyl]-3 (4 methylsulfonylphenyl)-2-propenamide]?
A: PLA2 -inhibitory activity IC30, membrane fraction [1]: 0.045 µM; PLA2 -inhibitory activity IC30, supernatant fraction [2]: 92 µM

Q: Which “PLA2 -inhibitory activity IC30, membrane fraction” value [1] does the source give for CN(C(=O)/C=C/C=C/c1cc(Br)c(O)c(Br)c1)c1ccc(S(=O)(=O)NC2CCCCCC2)cc1 [Example 44, N-cycloheptyl-4-{N-methyl-N-[(2E, 4E)-5-(3,5-dibromo-4-hydroxyphenyl) -2,4-pentadienoyl]amino}benzenesulfonamide] here?
A: 5.1 µM

Q: What about the “PLA2 -inhibitory activity IC30, supernatant fraction” value [2] of the same compound?
A: 39 µM

Q: Which “PLA2 -inhibitory activity IC30, membrane fraction” value [1] does the source give for Cc1cccc(CCN2CCC(NS(=O)(=O)c3ccc(N(C)C(=O)/C=C/c4ccc(S(C)(=O)=O)cc4)cc3)CC2)n1 [Example 81, N-[1-(2-(6-methyl-2-pyridyl)ethyl]-4-piperidyl-4-{N-methyl-N-(E)-3-(4-methylsulfonylphenyl)-2-propenoyl]amino}benzenesulfonamide] here?
A: 0.044 µM

Q: What about the “PLA2 -inhibitory activity IC30, supernatant fraction” value [2] of the same compound?
A: > 100 µM

Q: For CN(C(=O)/C=C/c1ccc(S(C)(=O)=O)cc1)c1ccc(S(=O)(=O)NC2CCCCN(Cc3ccccc3)C2)cc1 (racemic) [Example 9, (±)-[1-benzyl-3-hexamethyleneimino]-4-{N-methyl N-[(E)-N-3-(4-methylsulfonylphenyl)-2-propenoyl]amino)benzenesulfonamide], which “PLA2 -inhibitory activity IC30, membrane fraction” value [1] is on record?
A: 0.015 µM

Q: What about the “PLA2 -inhibitory activity IC30, supernatant fraction” value [2] of the same compound?
A: 61 µM

Q: For CN(C(=O)/C=C/c1ccc(-n2ccnc2)cc1)c1ccc(S(=O)(=O)NC2CCCCCC2)cc1 [Example 29], which “PLA2 -inhibitory activity IC30, membrane fraction” value [1] is on record?
A: 0.45 µM

Q: And the “PLA2 -inhibitory activity IC30, supernatant fraction” value [2]?
A: 90 µM

Q: Which “PLA2 -inhibitory activity IC30, membrane fraction” value [1] does the source give for CN(C(=O)/C=C/c1ccc(O)c(O)c1)c1ccc(S(N)(=O)=O)cc1 [Example 65, 4-{N-methyl-N-[(E)-3-(3,4-dihydroxyphenyl)-2-propenoyl]amino}benzenesulfonamide] here?
A: 16 µM

Q: For COc1ccc(/C(=C/C(=O)Nc2ccc(S(N)(=O)=O)cc2)c2cccnc2)cc1OC [Example 72], which “PLA2 -inhibitory activity IC30, membrane fraction” value [1] is on record?
A: 41 µM
